Patent publication US6017719A, “Positive and positive/negative cell selection mediated by peptide release” (Nexell Therapeutics, Inc., priority 1995, dated 2000)
“Also recorded” adds a separate entry of the source. Values belong to the molecule of their own block, whether it stands above or below them. Ends that are not written are not given here.

Experiments:
[1] = Solubilization of peptides in DPBS plus 1% HSA; assay type: physicochemical
Excerpt: 9079A-G peptides were solubilized in Dulbecco's phosphate buffered saline (DPBS) plus 1% HSA.

CD34 cells = assay: Stem cell selection with 9069 antibody, sheep-anti-mouse beads and releasing agent; assay type: cell-based, human; conditions: chymopapain release
CD34+ cells = assay: CD34+ cell isolation on automated cell separation apparatus, then culture with cytokines; assay type: cell-based, human
Protocol: CD34+ cells were also isolated from human mobilized peripheral blood using the automated cell separation apparatus described in U.S. Pat. No. 5,536,475 and the method essentially as described in WO 95/24969 Both U.S. Pat. No. 5,536,475 and WO 95/24969 are herein expressly incorporated by reference. Chymopapain was used as the control releasing agent, and 25 mg of the peptide 9069N (Table 11) was used as the test releasing agent.

anti-CD34 antibody, 9069 = assay: KG1a cell FACS assay: release by peptides of 9069 antibody prebound to cells; assay type: binding, mouse; conditions: peptide added to KG1a cells with prebound 9069; 10^5 to 10^6 molar excess, 30 min, room temperature
Protocol: These experiments were performed following a similar procedure to the binding experiments except that the anti-CD34 antibody, 9069, was incubated with KG1a cells first, followed by addition of peptide. The experimental outline is schematically shown below:
KG1a Cell Assay to Test for Release by Peptides of 9069 Antibody Bound to Cells.
Anti-CD34 antibody, 9069 (0.i microgram) was incubated with KG1a cells (10^6) for 30 minutes at room temperature (about 22° C.). Molar excesses of 10^5 to 10^6 times the amount of peptide to antibody were tested for the ability to displace the prebound antibody. Peptides were incubated with the antibody-cell complexes for 30 minutes at room temperature (approximately 22° C.). Remaining bound antibody was detected using the FITC-goat anti-mouse IgG reagent described in Example 3.
Analysis of the variant peptide, 9069Q2, was done in parallel with the 9069N peptide. This analysis provides quality control information on reagents including the antibody, 9069, and the cells, KG1a. FACScan assays included a negative control of KG1a cells alone and positive control samples of KG1a cells with the 9069 antibody bound and detected with a secondary antibody, goat-anti-mouse IgG-FITC.

561 antibody [2] = assay: Chemical reagents as enhancers of peptide-dependent release of CD34+ cells from the 561 antibody (FACS assay); assay type: cell-based
Protocol: The ability of chemical reagents to enhance peptide-dependant release of captured CD34+ cells from the 561 antibody was examined. […] Since long-term viability of the low pH-released cells was not known, conditions which could alter the pH to a more neutral value (about pH5-7) were desirable.
Reagents which were known to affect electrostatic and hydrogen bonding interactions of proteins were tested in addition to excluded-volume polymers. Included in these studies were sodium chloride, sodium acetate, magnesium chloride, calcium chloride, polyethylene glycol (PEG), ficoll, sodium succinate, sodium citrate, protamine sulphate, spermine, and polybrene.

561 antibody [3] = assay: KG1a or tHL60 cell-based FACS assay: release of prebound 561 antibody; assay type: binding
Excerpt: Five peptides representing hexapeptides selected from biopannings were synthesized and tested for their ability to serve as release agents in the KG1a or tHL60 cell-based FACS assay.
The peptides (see Table 27 below) were synthesized by Research Genetics and tested without purification. The 9069 antibody was used as a positive control and released with the 9069N peptide (Ac-Q Q G W F P-K D) (SEQ ID NO:9). This control served to test for the KG1a cells and the goat-anti-mouse FITC secondary detection antibody. Hexapeptide sequences identified for the 561 antibody were tested for their ability to displace prebound 561 antibody.
HPLC-purified peptides 561C and D were tested in the cell-based KG1a FACS assay.
Functional release activity of purified 561D peptide at pH 4 and 6 was tested.
Functional release activity of purified 561C and 561D peptides at pH 4, 5, 6, 7, 8, and 9 was tested.
Functional release activity of crude 561A,B,C,D, M, P, Q, CDR2H, CDR2L, CDR3H, CDR3L, 34B, 34C,34D,34E and 34F peptides adjusted to pH 7 and pH unadjusted (~pH3.8-4.3) was tested.

[4] = Table 7, mobilized peripheral blood (5.86% CD34 start)
[5] = Table 10, mobilized peripheral blood (0.68% CD34 start)
[6] = crude peptide, pH unadjusted (around pH 3.8-4.3; low pH ~4)

solubility [1]: solubilized
Molecule: QYTQPKD [Peptide 9079C, QYTQPK--D]

solubility [1]: solubilized
Molecule: YSRLGFKD [Peptide 9079B, YSRLGF--KD]

solubility [1]: solubilized
Molecule: NLQGEFKD [Peptide 9079D, NLQGEF--KD]

solubility [1]: solubilized
Molecule: KDVYSLWPKD [Peptide 9079H, KD--VYSLWP--KD]

solubility [1]: insoluble
Molecule: RSFYYRD [Peptide 9079E, RSFYYR--D]

solubility [1]: solubilized
Molecule: IQEFGVKD [Peptide 9079F, IQEFGV--KD]

Continued, molecule first:

Molecule: Chymopapain
% CD34 CELLS Negative Fraction (CD34 cells; [4]): 2.5%
% CD34 CELLS Positive Fraction (CD34 cells; [4]): 94%
% Capture (CD34 cells; [4]): 62%
% CD34 CELLS Negative Fraction (CD34 cells; Table 8, mobilized peripheral blood (1.05% CD34 start)): 0.16%
% CD34 CELLS Negative Fraction (CD34 cells; Table 9, bone marrow (3.66% CD34 start)): 0.34%
% CD34 CELLS Negative Fraction (CD34 cells; [5]): 0.12%
% Yield (CD34 cells; [5]): 68%
purity of the positively selected CD34+ cells (CD34+ cells; mobilized peripheral blood, 25 mg peptide 9069N or chymopapain control): greater than 90%
expansion in cell number (CD34+ cells; released CD34+ cells of first experiment, culture with cytokines for 12 days): 68 fold

Molecule: A D G A-L I S Q V S-Q A K D (ADGALISQVSQAKD) [Peptide 9069C]
% Inhibition of Binding (anti-CD34 antibody, 9069): 32%

Molecule: [Cl-].[Cl-].[Mg+2] [magnesium chlordie, magnesium chloride]
enhancement of peptide mediated release of CD34+ selected cells (561 antibody [2]): Less dramatic results

Molecule: PGSPLGKD [Peptide 9079A, PGSPLG--KD]
solubility [1]: solubilized

Molecule: CC(=O)[O-].[Na+] [sodium acetate]
enhancement of peptide mediated release of CD34+ selected cells (561 antibody [2]): significant activity as an enhancement reagent

Molecule: A I Y P G D G D T R Y T Q K F V V (AIYPGDGDTRYTQKFVV) [Peptide 561CDR2H]
release activity on prebound 561 antibody (561 antibody [3]; crude peptide, pH 7): none of these peptides showed release activity; also recorded: did not show release activity
release activity on prebound 561 antibody (561 antibody [3]; [6]): showed functional release activity; also recorded: showed significant release activity
release activity on prebound 561 antibody (561 antibody [3]; pH 6): did not show release activity

Molecule: A C K W C R (ACKWCR) [Peptide 561M]
release activity on prebound 561 antibody (561 antibody [3]; crude peptide, pH 7): none of these peptides showed release activity; also recorded: did not show release activity
release activity on prebound 561 antibody (561 antibody [3]; [6]): showed functional release activity; also recorded: showed significant release activity
release of 561 antibody prebound to KG1a or tHL60 cells (in words) (561 antibody [3]; crude peptides, pH not stated): able to release 561 antibody prebound to KG1a or tHL60 cells
release activity on prebound 561 antibody (561 antibody [3]; pH 6): did not show release activity
